{
  "source": "patent US9695154B2",
  "about": "“Heteroaryl inhibitors of sumo activating enzyme” (MILLENNIUM PHARMACEUTICALS, INC., priority 2013, dated 2017)",
  "target": "T1, recombinant human SAE enzyme (Homo sapiens, UniProt Q9UBT2)",
  "T1 sequence (Q9UBT2 1-640)": "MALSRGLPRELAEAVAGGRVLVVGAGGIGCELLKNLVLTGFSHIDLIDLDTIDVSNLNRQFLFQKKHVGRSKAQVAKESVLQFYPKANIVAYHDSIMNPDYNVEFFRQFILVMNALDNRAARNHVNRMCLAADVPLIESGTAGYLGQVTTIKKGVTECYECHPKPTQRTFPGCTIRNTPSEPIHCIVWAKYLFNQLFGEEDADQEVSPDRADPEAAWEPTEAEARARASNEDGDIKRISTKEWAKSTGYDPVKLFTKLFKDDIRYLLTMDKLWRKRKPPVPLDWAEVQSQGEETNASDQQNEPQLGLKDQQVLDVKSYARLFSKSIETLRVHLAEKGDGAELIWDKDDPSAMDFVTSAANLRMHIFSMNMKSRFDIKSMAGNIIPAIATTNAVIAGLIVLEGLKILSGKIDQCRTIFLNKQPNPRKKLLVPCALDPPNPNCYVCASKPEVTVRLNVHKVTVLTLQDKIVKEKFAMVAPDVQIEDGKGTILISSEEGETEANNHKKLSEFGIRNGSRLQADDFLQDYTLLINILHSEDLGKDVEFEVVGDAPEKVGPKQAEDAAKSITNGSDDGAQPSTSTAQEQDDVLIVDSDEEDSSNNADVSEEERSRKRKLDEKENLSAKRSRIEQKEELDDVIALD",
  "T1 sequence (Q9UBE0 1-346 partner)": "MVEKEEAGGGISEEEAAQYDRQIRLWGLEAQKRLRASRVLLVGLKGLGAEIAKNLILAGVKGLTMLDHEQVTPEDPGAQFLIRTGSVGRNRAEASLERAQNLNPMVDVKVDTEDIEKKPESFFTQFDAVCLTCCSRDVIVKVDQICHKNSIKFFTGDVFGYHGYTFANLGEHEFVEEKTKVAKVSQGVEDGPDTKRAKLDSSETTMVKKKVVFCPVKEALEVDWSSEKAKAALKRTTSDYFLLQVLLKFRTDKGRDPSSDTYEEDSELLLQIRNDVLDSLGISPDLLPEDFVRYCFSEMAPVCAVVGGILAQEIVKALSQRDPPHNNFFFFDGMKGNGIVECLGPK",
  "assay": "SAE HTRF Enzyme Assay",
  "format": "biochemical",
  "details": "for IC50: class symbols A-C; for inhibition at 0.111 µM: compound concentration 0.111 μM, read-out: Percent Inhibition",
  "in_short": "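Recombinant human SAE (0.11 nM) transferred Sumo-Flag (0.125 μM) to Ubc9-GST (0.01 μM) with 0.5 μM ATP in HEPES pH 7.5, MgCl2, GSH, BSA; 105 min at 24° C. EDTA stop, Eu-cryptate anti-Flag and XL-APC anti-GST added, 2 h, then HTRF read. Values given as % inhibition at one concentration or IC50.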",
  "data": [
    {"compound": "NS(=O)(=O)OC[C@H]1C[C@@H](Nc2ncncc2C(=O)c2ccn(Cc3cc4ccccc4o3)c2)[C@@H](F)[C@@H]1O", "note": "[Compound I-110, {(1R,2R,3R,4R)-4-[(5-{[1-(1-benzofuran-2-ylmethyl)-1H-pyrrol-3-yl]carbonyl}pyrimidin-4-yl)amino]-3-fluoro-2-hydroxycyclopentyl}methyl sulfamate]", "values": [
      {"measurement": "IC50", "result": "< 10", "unit": "nM"},
      {"measurement": "inhibition at 0.111 µM", "result": 99, "unit": "%"}
    ]},
    {"compound": "NS(=O)(=O)OC[C@H]1C[C@@H](Nc2ncncc2C(=O)c2nn(Cc3cccc(Br)c3)cc2Cl)C[C@@H]1O", "note": "[Compound I-111, {(1R,2S,4R)-4-[(5-{[1-(3-Bromobenzyl)-4-chloro-1H-pyrazol-3-yl]carbonyl}pyrimidin-4-yl)amino]-2-hydroxycyclopentyl}methyl sulfamate]", "values": [
      {"measurement": "IC50", "result": "< 10", "unit": "nM"},
      {"measurement": "inhibition at 0.111 µM", "result": 91, "unit": "%"}
    ]},
    {"compound": "NS(=O)(=O)OC[C@H]1C[C@@H](Nc2ncncc2C(=O)c2ccn(Cc3ccc(Cl)c(F)c3)n2)[C@H](O)[C@@H]1O", "note": "[Compound I-112, {(1R,2R,3S,4R)-4-[(5-{[1-(4-chloro-3-fluorobenzyl)-1H-pyrazol-3-yl]carbonyl}pyrimidin-4-yl)amino]-2,3-dihydroxycyclopentyl}methyl sulfamate]", "values": [
      {"measurement": "IC50", "result": "< 10", "unit": "nM"},
      {"measurement": "inhibition at 0.111 µM", "result": 97, "unit": "%"}
    ]},
    {"compound": "CC(C)(C)C#CCn1ccc(C(=O)c2cncnc2N[C@@H]2C[C@H](COS(N)(=O)=O)[C@@H](O)C2)n1", "note": "[Compound I-113, {(1R,2S,4R)-4-[(5-{[1-(4,4-dimethylpent-2-yn-1-yl)-1H-pyrazol-3-yl]carbonyl}pyrimidin-4-yl)amino]-2-hydroxycyclopentyl}methyl sulfamate]", "values": [
      {"measurement": "IC50", "result": "10 to 100", "unit": "nM"},
      {"measurement": "inhibition at 0.111 µM", "result": 81, "unit": "%"}
    ]},
    {"compound": "NS(=O)(=O)OC[C@H]1C[C@@H](Nc2ncncc2C(=O)c2ccn(Cc3cc(C(F)(F)F)co3)c2)[C@@H](F)[C@@H]1O", "note": "[Compound I-114, [(1R,2R,3R,4R)-3-fluoro-2-hydroxy-4-({5-[(1-{[4-(trifluoromethyl)-2-furyl]methyl}-1H-pyrrol-3-yl)carbonyl]pyrimidin-4-yl}amino)cyclopentyl]methyl sulfamate]", "values": [
      {"measurement": "IC50", "result": "< 10", "unit": "nM"},
      {"measurement": "inhibition at 0.111 µM", "result": 98, "unit": "%"}
    ]},
    {"compound": "CC#CCCn1ccc(C(=O)c2cncnc2N[C@@H]2C[C@H](COS(N)(=O)=O)[C@@H](O)C2)n1", "note": "[Compound I-115]", "values": [
      {"measurement": "IC50", "result": "100 to 1000", "unit": "nM"},
      {"measurement": "inhibition at 0.111 µM", "result": 33, "unit": "%"}
    ]},
    {"compound": "C=CC(=O)N(C)c1cccc(Cn2ccc(C(=O)c3cncnc3N[C@@H]3C[C@H](COS(N)(=O)=O)[C@@H](O)[C@@H]3F)n2)c1", "note": "[Compound I-116, [(1R,2R,3R,4R)-4-({5-[(1-{3-[Acryloyl(methyl)amino]benzyl}-1H-pyrazol-3-yl)carbonyl]pyrimidin-4-yl}amino)-3-fluoro-2-hydroxycyclopentyl]methyl sulfamate]", "values": [
      {"measurement": "IC50", "result": "100 to 1000", "unit": "nM"},
      {"measurement": "inhibition at 0.111 µM", "result": 33, "unit": "%"}
    ]},
    {"compound": "NS(=O)(=O)OC[C@H]1C[C@@H](Nc2ncncc2C(=O)c2ccn(Cc3cccc(OC(F)F)c3)n2)C[C@@H]1O", "note": "[Compound I-117, [(1R,2S,4R)-4-{[5-({1-[3-(difluoromethoxy)benzyl]-1H-pyrazol-3-yl}carbonyl)pyrimidin-4-yl]amino}-2-hydroxycyclopentyl]methyl sulfamate]", "values": [
      {"measurement": "IC50", "result": "< 10", "unit": "nM"},
      {"measurement": "inhibition at 0.111 µM", "result": 98, "unit": "%"}
    ]},
    {"compound": "NS(=O)(=O)OC[C@H]1C[C@@H](Nc2ncncc2C(=O)c2ccn(CCc3cccc4ccccc34)n2)[C@H](O)[C@@H]1O", "note": "[Compound I-118, [(1R,2R,3S,4R)-2,3-dihydroxy-4-{[5-({1-[2-(1-naphthyl)ethyl]-1H-pyrazol-3-yl}carbonyl)pyrimidin-4-yl]amino}cyclopentyl]methyl sulfamate]", "values": [
      {"measurement": "IC50", "result": "< 10", "unit": "nM"},
      {"measurement": "inhibition at 0.111 µM", "result": 99, "unit": "%"}
    ]},
    {"compound": "NS(=O)(=O)OC[C@H]1C[C@@H](Nc2ncncc2C(=O)c2ccn(Cc3cccc(C(F)(F)F)c3)n2)[C@H](O)[C@@H]1O", "note": "[Compound I-119, [(1R,2R,3S,4R)-2,3-dihydroxy-4-{[5-({1-[3-(trifluoromethyl)benzyl]-1H-pyrazol-3-yl}carbonyl)pyrimidin-4-yl]amino}cyclopentyl]methyl sulfamate]", "values": [
      {"measurement": "IC50", "result": "< 10", "unit": "nM"},
      {"measurement": "inhibition at 0.111 µM", "result": 98, "unit": "%"}
    ]}
  ]
}
